Reference: US10658848B2, “Materials for use with aqueous redox flow batteries and related methods and systems” (Massachusetts Institute of Technology, priority 2014, dated 2020)
Marks after values point to notes of the source that are not given here.

Assay: Qualitative cyclic voltammetry of quinoxaline electrolytes
Type: physicochemical
Description: Quinoxaline electrochemical behavior was characterized in a number of aqueous electrolytes. […] All electrochemical measurements presented in this paper were performed using a Biologic VSP-300 potentiostat. Glassy carbon electrodes were used as working electrodes in voltammetry experiments and were polished using 0.05 μm alumina suspension before performing a new set of measurements. Solution resistances were measured prior to electrochemical experiments to be 5Ω. Due to small peak currents during CV (less than 1 mA), the maximum estimated iR drop was 5 mV. During qualitative CV experiments, a 75% solution resistance compensation (iR correction) was applied during the experiment to ensure high quality data in untested systems. Quantitative CV techniques were carried with no iR correction as the small potential offset was unlikely to affect experimental results. Additionally, no iR correction was applied during RDV experiments because analyses only considered the limiting RDV current, which is unaffected by ohmic losses. All potentials given herein are presented versus the reversible hydrogen electrode (RHE), unless otherwise stated. Experimental potentials were determined versus a calibrated Ag/AgCl reference electrode and converted to potentials versus RHE using the […] equation and the pH of the solution, measured with a pH meter. All currents utilized in quantitative calculations were background corrected, assuming the background current was composed of non-faradaic, hydrogen evolution reaction and oxygen reduction reaction currents. Qualitative CV experiments were carried out in a three-electrode cell with a 0.3 cm diameter glassy carbon electrode (0.071 cm^2, CH Instruments), a platinum (Pt) wire counter electrode (CH Instruments) and a Ag/AgCl (3 M NaCl, BASi Inc.) reference electrode. […] Three-electrode cells were filled with 10 mL of solution, and the solution was bubbled with argon at a rate of 50 mL/min for 10 min prior to experiments. The argon bubbling tube was then adjusted such that it provided a blanket of argon gas over the surface of the solution. Then, ten cycles of CV were recorded at a scan rate of 100 mV/s. […] A linear slope to the front of an anodic peak (ma) and cathodic peak (mc) was estimated as a rough indicator of the overall reaction rate of either the forward or backward reaction, combining effects of both reaction kinetics and mass-transport. Achieving a slope ratio (ma/mc) of one, indicates an equally fast forward and backward overall reaction rate.

[1] = 0.45M Li2SO4/0.1M LiOH, pH 12.2
[2] = 0.495M K2SO4/0.01M KOH, pH 11.8
[3] = 0.495M Li2SO4/0.01M LiOH, pH 12.0
[4] = 0.5M K2SO4, pH 8.9, considerable degradation
[5] = 0.9M NaC2H3O2/0.1M NaOH, pH 12.7
[6] = 0.99M LiNO3/0.01M LiOH, pH 11.3
[7] = 0.99M NaC2H3O2/0.01M NaOH, pH 11.8
[8] = 0.99M NaHCO3/0.01M NaOH, pH 8.7
[9] = 0.99M NaNO3/0.01M NaOH, pH 11.6
[10] = 1M KNO3, pH 7.2, significant hydrogen evolution reaction current
[11] = 1M LiCl, pH 3.8, considerable degradation
[12] = 1M LiNO3, pH 6.0, significant hydrogen evolution reaction current
[13] = 1M NaHCO3, pH 8.7, considerable degradation

E° vs. RHE (0.45M K2SO4/0.1M KOH, pH 12.8): −0.50 V
ipa, 10/ipa, 2 (0.45M K2SO4/0.1M KOH, pH 12.8): 0.99
ipc, 10/ipc, 2 (0.45M K2SO4/0.1M KOH, pH 12.8): 0.97
ma/mc (0.45M K2SO4/0.1M KOH, pH 12.8): 0.51
ΔEpp, 10/ΔEpp, 2 (0.45M K2SO4/0.1M KOH, pH 12.8): 1.05
E° vs. RHE [1]: −0.52 V
ipa, 10/ipa, 2 [1]: 1.00
ipc, 10/ipc, 2 [1]: 0.99
ma/mc [1]: 0.46
ΔEpp, 10/ΔEpp, 2 [1]: 1.02
E° vs. RHE [2]: −0.51 V
ipa, 10/ipa, 2 [2]: 0.98
ipc, 10/ipc, 2 [2]: 0.95
ma/mc [2]: 0.64
ΔEpp, 10/ΔEpp, 2 [2]: 1.08
E° vs. RHE [3]: −0.52 V
ipa, 10/ipa, 2 [3]: 0.96
ipc, 10/ipc, 2 [3]: 0.95
ma/mc [3]: 0.55
ΔEpp, 10/ΔEpp, 2 [3]: 1.06
E° vs. RHE [4]: −0.90 ^‡ V
ipc, 10/ipc, 2 [4]: 0.45 ^‡
ma/mc [4]: 0.91 ^‡
ΔEpp, 10/ΔEpp, 2 [4]: 2.16 ^‡
E° vs. RHE (0.5M Li2SO4, pH 6.6, considerable degradation): −0.81 ^‡ V
E° vs. RHE (0.9M KCl/0.1M KOH, pH 12.8): −0.45 V
ipa, 10/ipa, 2 (0.9M KCl/0.1M KOH, pH 12.8): 0.99
ipc, 10/ipc, 2 (0.9M KCl/0.1M KOH, pH 12.8): 0.96
ma/mc (0.9M KCl/0.1M KOH, pH 12.8): 0.46
ΔEpp, 10/ΔEpp, 2 (0.9M KCl/0.1M KOH, pH 12.8): 1.05
E° vs. RHE (0.9M KNO3/0.1M KOH, pH 12.8): −0.50 V
ipa, 10/ipa, 2 (0.9M KNO3/0.1M KOH, pH 12.8): 0.99
ipc, 10/ipc, 2 (0.9M KNO3/0.1M KOH, pH 12.8): 0.98
ma/mc (0.9M KNO3/0.1M KOH, pH 12.8): 0.53
ΔEpp, 10/ΔEpp, 2 (0.9M KNO3/0.1M KOH, pH 12.8): 1.03
E° vs. RHE (0.9M LiCl/0.1M LiOH, pH 12.1): −0.53 V
ipa, 10/ipa, 2 (0.9M LiCl/0.1M LiOH, pH 12.1): 1.00
ipc, 10/ipc, 2 (0.9M LiCl/0.1M LiOH, pH 12.1): 0.99
ma/mc (0.9M LiCl/0.1M LiOH, pH 12.1): 0.51
ΔEpp, 10/ΔEpp, 2 (0.9M LiCl/0.1M LiOH, pH 12.1): 1.04
E° vs. RHE (0.9M LiNO3/0.1M LiOH, pH 12.1): −0.48 V
ipa, 10/ipa, 2 (0.9M LiNO3/0.1M LiOH, pH 12.1): 0.99
ipc, 10/ipc, 2 (0.9M LiNO3/0.1M LiOH, pH 12.1): 0.95
ma/mc (0.9M LiNO3/0.1M LiOH, pH 12.1): 0.51
ΔEpp, 10/ΔEpp, 2 (0.9M LiNO3/0.1M LiOH, pH 12.1): 1.10
E° vs. RHE [5]: −0.51 V
ipa, 10/ipa, 2 [5]: 1.00
ipc, 10/ipc, 2 [5]: 0.97
ma/mc [5]: 0.46
ΔEpp, 10/ΔEpp, 2 [5]: 1.04
E° vs. RHE (0.9M NaHCO3/0.1M NaOH, pH 9.1): −0.53 V
ipa, 10/ipa, 2 (0.9M NaHCO3/0.1M NaOH, pH 9.1): 0.82
ipc, 10/ipc, 2 (0.9M NaHCO3/0.1M NaOH, pH 9.1): 0.78
ma/mc (0.9M NaHCO3/0.1M NaOH, pH 9.1): 1.63
ΔEpp, 10/ΔEpp, 2 (0.9M NaHCO3/0.1M NaOH, pH 9.1): 1.56
E° vs. RHE (0.9M NaNO3/0.1M NaOH, pH 12.5): −0.52 V
ipa, 10/ipa, 2 (0.9M NaNO3/0.1M NaOH, pH 12.5): 0.98
ipc, 10/ipc, 2 (0.9M NaNO3/0.1M NaOH, pH 12.5): 0.98
ma/mc (0.9M NaNO3/0.1M NaOH, pH 12.5): 0.50
ΔEpp, 10/ΔEpp, 2 (0.9M NaNO3/0.1M NaOH, pH 12.5): 1.07
ip,a (0.99 M KCl/0.01 M KOH, across all cycles): 0.12 mA
E° vs. RHE (0.99M KCl/0.01M KOH, pH 11.8): −0.48 V
ipa, 10/ipa, 2 (0.99M KCl/0.01M KOH, pH 11.8): 1.00
ipc, 10/ipc, 2 (0.99M KCl/0.01M KOH, pH 11.8): 0.97
ma/mc (0.99M KCl/0.01M KOH, pH 11.8): 0.59
ΔEpp, 10/ΔEpp, 2 (0.99M KCl/0.01M KOH, pH 11.8): 1.02
E° vs. RHE (0.99M KNO3/0.01M KOH, pH 11.7): −0.52 V
ipa, 10/ipa, 2 (0.99M KNO3/0.01M KOH, pH 11.7): 1.00
ipc, 10/ipc, 2 (0.99M KNO3/0.01M KOH, pH 11.7): 0.97
ma/mc (0.99M KNO3/0.01M KOH, pH 11.7): 0.64
ΔEpp, 10/ΔEpp, 2 (0.99M KNO3/0.01M KOH, pH 11.7): 1.01
E° vs. RHE (0.99M LiCl/0.01M LiOH, pH 11.4): −0.52 V
ipa, 10/ipa, 2 (0.99M LiCl/0.01M LiOH, pH 11.4): 0.99
ipc, 10/ipc, 2 (0.99M LiCl/0.01M LiOH, pH 11.4): 0.96
ma/mc (0.99M LiCl/0.01M LiOH, pH 11.4): 0.63
ΔEpp, 10/ΔEpp, 2 (0.99M LiCl/0.01M LiOH, pH 11.4): 1.05
E° vs. RHE [6]: −0.47 V
ipa, 10/ipa, 2 [6]: 0.98
ipc, 10/ipc, 2 [6]: 0.95
ma/mc [6]: 0.67
ΔEpp, 10/ΔEpp, 2 [6]: 1.08
E° vs. RHE [7]: −0.52 V
ipa, 10/ipa, 2 [7]: 1.01
ipc, 10/ipc, 2 [7]: 0.97
ma/mc [7]: 0.58
ΔEpp, 10/ΔEpp, 2 [7]: 1.06
E° vs. RHE [8]: −0.53 V
ipa, 10/ipa, 2 [8]: 0.06
ipc, 10/ipc, 2 [8]: 0.50
ma/mc [8]: 1.61
ΔEpp, 10/ΔEpp, 2 [8]: 2.90
E° vs. RHE [9]: −0.52 V
ipa, 10/ipa, 2 [9]: 1.00
ipc, 10/ipc, 2 [9]: 0.96
ma/mc [9]: 0.61
ΔEpp, 10/ΔEpp, 2 [9]: 1.04
ip,a (1 M KCl, cycle 2): 0.11 mA
ip,a (1 M KCl, cycle 10): 0.06 mA
E° vs. RHE (1M KCl, pH 5.4): −0.80 V
ipa, 10/ipa, 2 (1M KCl, pH 5.4): 0.57
ipc, 10/ipc, 2 (1M KCl, pH 5.4): 0.56
ma/mc (1M KCl, pH 5.4): 0.75
ΔEpp, 10/ΔEpp, 2 (1M KCl, pH 5.4): 1.85
E° vs. RHE [10]: −0.76 ^† V
ipa, 10/ipa, 2 [10]: 0.91 ^†
ipc, 10/ipc, 2 [10]: 1.01 ^†
ma/mc [10]: 1.51 ^†
ΔEpp, 10/ΔEpp, 2 [10]: 1.04 ^†
peak separation (1 M KOH, 1 M NaOH, or 1 M LiOH): ~150 mV
E° vs. RHE (1M KOH, pH 13.7): −0.48 V
ipa, 10/ipa, 2 (1M KOH, pH 13.7): 0.98
ipc, 10/ipc, 2 (1M KOH, pH 13.7): 0.97
ma/mc (1M KOH, pH 13.7): 0.42
ΔEpp, 10/ΔEpp, 2 (1M KOH, pH 13.7): 1.04
E° vs. RHE [11]: −0.94 ^‡ V
ipc, 10/ipc, 2 [11]: 0.08 ^‡
ma/mc [11]: 0.96 ^‡
ΔEpp, 10/ΔEpp, 2 [11]: 2.95 ^‡
E° vs. RHE [12]: −0.75 ^† V
ipa, 10/ipa, 2 [12]: 0.80 ^†
ipc, 10/ipc, 2 [12]: 0.91 ^†
ma/mc [12]: 1.94 ^†
ΔEpp, 10/ΔEpp, 2 [12]: 1.11 ^†
E° vs. RHE (1M LiOH, pH 12.7): −0.55 V
ipa, 10/ipa, 2 (1M LiOH, pH 12.7): 0.98
ipc, 10/ipc, 2 (1M LiOH, pH 12.7): 0.96
ma/mc (1M LiOH, pH 12.7): 0.45
ΔEpp, 10/ΔEpp, 2 (1M LiOH, pH 12.7): 1.00
E° vs. RHE (1M NaC2H3O2, pH 8.6, two distinct reduction and oxidation peaks): −0.68 * V
E° vs. RHE [13]: −0.53 ^‡ V
ma/mc [13]: 1.51 ^‡
E° vs. RHE (1M NaNO3, pH 6.8): −0.77 V
ipa, 10/ipa, 2 (1M NaNO3, pH 6.8): 0.12
ipc, 10/ipc, 2 (1M NaNO3, pH 6.8): 0.46
ma/mc (1M NaNO3, pH 6.8): 0.82
ΔEpp, 10/ΔEpp, 2 (1M NaNO3, pH 6.8): 1.78
E° vs. RHE (1M NaOH, pH 13.8): −0.48 V
ipa, 10/ipa, 2 (1M NaOH, pH 13.8): 0.99
ipc, 10/ipc, 2 (1M NaOH, pH 13.8): 0.98
ma/mc (1M NaOH, pH 13.8): 0.46
ΔEpp, 10/ΔEpp, 2 (1M NaOH, pH 13.8): 1.01
peak separation (KCl electrolyte with 0.01 M KOH, cycle 2): 230 mV
peak separation (KCl electrolyte with 0.1 M KOH, cycle 2): 200 mV
ratio of charge transferred between the cathodic and anodic scans (all electrolytes with pH≥11.4, within a particular CV cycle): exceeded 0.9
redox potential E° vs. RHE (cases where quinoxaline exhibited stable performance over multiple CV cycles): ≈ −0.5 V
redox potential E° vs. RHE (electrolytes where degradation of quinoxaline was observed, not indicators of the actual redox potential): ≤ −0.75 V
peak separation (sulfate and chloride anions, at 0.01 M OH^−): < 220 mV
peak separation (sulfate and chloride anions, at 0.1 M OH^−): < 200 mV
Structure (SMILES): c1ccc2nccnc2c1 [quinoxaline]
